The subject of one experiment is HT-29 cells. The experiment can be described thus: Smac mimetic plus pan-caspase inhibitor induced necrosis in HT-29 cells. It is filed as cell-based, human. The following applies: for cell death of HT-29 cells: Smac mimetic plus z-VAD or Q-VD-OPH co-treatment. As to the method:
To verify that cell death seen in HT-29 cells was indeed necrosis, cells treated with either vehicle DMSO, or Smac mimetic plus z-VAD, were analyzed by electron microscopy (EM). […] No obvious apoptotic morphological changes were observed.
Since Smac mimetic induces apoptosis in certain tumor lines as a result of autocrine TNF-α (Petersen et al., 2007; Vince et al., 2007; Varfolomeev et al., 2007), we checked whether autocrine TNF-α is required for the observed necrosis in HT-29 cells. […] Moreover, exogenously added TNF-α augmented Smac mimetic plus z-VAD induced cell death and it did so in a dose dependent manner.

The test system of a further experiment is T98G cells. The experiment is described as follows: Necrosis induction in T98G cells ectopically expressing RIP3. It is filed as cell-based, human. The following applies: T98G cells expressing wild type RIP3, necrosis induction. The source says:
Since cells resistant to TNF-α induced necrotic death are also defective in RIP3 expression, we then tested whether ectopic expression of RIP3 converts these cells to sensitive ones. When wild type RIP3 was expressed in T98G cells, we saw marked cell death in these cells upon necrosis induction compared to vector transfection controls. […] Moreover, T98G cell death resulted from RIP3 expression was blocked by the necrosis inhibitor, Necrostatin-1. Similar effects were observed when RIP3 was expressed in HeLa cells, MCF-7 cells, and H2009 cells.

The next experiment deals with RIP3/RIPK1 (Homo sapiens, UniProt Q13546). The experiment can be described thus: RIP3 up-shift and RIPK1 co-immunoprecipitation in HT-29 cells under necrosis induction. It is filed as cell-based. The following applies: co-treatment during necrosis induction (TNF-α, Smac mimetic, z-VAD). The procedure: To test whether endogenous RIP3 indeed interacts with RIPK1 upon necrosis induction, we treated HT-29 cells with TNF-α, Smac mimetic and z-VAD, followed by immuno-precipitation using an anti-RIPK1 antibody at different time points. […] Correlating with the shift, RIP3 was found in the RIPK1 immuno-complex starting at 4 hours of necrosis induction and peaked at 8 hours. The up-shift of RIP3 and its interaction with RIPK1 only occurred under necrosis-inducing conditions. The observed up-shift of RIP3 is most likely due to phosphorylation that depends on its own kinase activity. […] Moreover, the RIP3 band can be shifted down to the original position on SDS-PAGE gel with phosphatase treatment.
To further confirm the relevance of RIP3 up-shift and its induced interaction with RIPK1 to necrosis, HT-29 cells were co-treated with Necrostatin-1 during necrosis induction.

The target of experiment [1] is RIPK1/FADD/caspase-8 complex (Homo sapiens, UniProt Q13546). The experiment is described as follows: Caspase-8 immunoprecipitation of RIPK1/FADD/caspase-8/RIP3 complex in HT-29 cells. It is filed as cell-based. To be noted: co-treatment, anti-caspase-8 immunoprecipitation. As to the method:
Since RIPK1 forms a complex with caspase-8/FADD upon treatment with TNF-α plus Smac mimetic and the complex is stabilized with z-VAD (Petersen et al., 2007; Wang et al., 2008), we wondered whether it is the same complex that recruits RIP3. To check that directly, we immuno-precipitated caspase-8 and analyzed the composition of the immuno-complex by Western blotting. […] RIP3 continued to be recruited to the complex for up to 6 hours of treatment. Much less proteins were immuno-precipitated at 8 hours with this anti-caspase-8 antibody. This observation might reflect that a large percentage of cells were dying. […] This is consistent with the notion that Necrostatin-1 inhibits RIPK1 kinase activity, which is required for the formation of RIPK1/FADD/caspase-8 complex (Degterev et al., 2008; Wang et al., 2008).

The target of another experiment is T1, cIAP2 (Homo sapiens, UniProt Q13489).
T1 construct: endogenous in cells; host or cells: HT-29
The experiment is described as follows: cIAP2 degradation upon Smac mimetic treatment in HT-29 cells. It is filed as cell-based.

The subject of the next experiment is L929 cells. The experiment can be described thus: Necrotic cell death in L929 cells. It is filed as cell-based, mouse. From the text:
TNF-α induced necrosis has been most extensively studied in mouse fibrosarcoma L929 cells due to its unique ability to undergo necrosis in response to TNF-α, or z-VAD alone (Grooten et al., 1993; Vercammen et al., 1998; Degterev et al., 2005; Kim et al., 2007). To test whether RIP3 is required for necrosis this L929 cells, we knocked down RIP3 with three individual mouse siRNA oligoes. Cell death induced by z-VAD, or TNF-α alone or combination of the two was attenuated when RIP3 was knocked down in L929 cells. The efficacy of necrosis blockage of these oligoes correlated perfectly with the efficiency of RIP3 knockdown.

A further experiment relates to certain tumor cell lines. To be noted: cited from earlier work.

The values below come from patent US7622106B1, “Necrosis assay” (Board of Regents, The University of Texas System, priority 2009, dated 2009).

RIP3/RIPK1, sequence (Q13546 whole entry): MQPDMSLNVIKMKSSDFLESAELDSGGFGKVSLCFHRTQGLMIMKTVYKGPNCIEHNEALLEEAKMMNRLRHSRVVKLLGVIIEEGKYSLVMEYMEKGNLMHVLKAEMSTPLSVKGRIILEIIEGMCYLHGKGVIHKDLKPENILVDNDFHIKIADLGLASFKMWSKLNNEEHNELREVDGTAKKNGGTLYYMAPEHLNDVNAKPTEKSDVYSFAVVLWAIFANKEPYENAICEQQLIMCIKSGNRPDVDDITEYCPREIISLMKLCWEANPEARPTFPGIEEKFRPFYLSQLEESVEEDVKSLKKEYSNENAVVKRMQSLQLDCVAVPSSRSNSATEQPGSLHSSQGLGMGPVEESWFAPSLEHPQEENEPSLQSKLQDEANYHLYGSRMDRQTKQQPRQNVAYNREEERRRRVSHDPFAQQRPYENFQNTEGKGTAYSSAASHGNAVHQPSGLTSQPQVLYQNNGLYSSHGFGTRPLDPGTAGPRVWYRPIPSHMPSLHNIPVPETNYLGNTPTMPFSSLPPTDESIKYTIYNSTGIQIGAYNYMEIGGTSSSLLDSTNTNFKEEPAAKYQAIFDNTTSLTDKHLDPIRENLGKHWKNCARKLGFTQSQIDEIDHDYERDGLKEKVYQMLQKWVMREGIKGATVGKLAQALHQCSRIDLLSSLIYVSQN
T1 sequence (Q13489 whole entry): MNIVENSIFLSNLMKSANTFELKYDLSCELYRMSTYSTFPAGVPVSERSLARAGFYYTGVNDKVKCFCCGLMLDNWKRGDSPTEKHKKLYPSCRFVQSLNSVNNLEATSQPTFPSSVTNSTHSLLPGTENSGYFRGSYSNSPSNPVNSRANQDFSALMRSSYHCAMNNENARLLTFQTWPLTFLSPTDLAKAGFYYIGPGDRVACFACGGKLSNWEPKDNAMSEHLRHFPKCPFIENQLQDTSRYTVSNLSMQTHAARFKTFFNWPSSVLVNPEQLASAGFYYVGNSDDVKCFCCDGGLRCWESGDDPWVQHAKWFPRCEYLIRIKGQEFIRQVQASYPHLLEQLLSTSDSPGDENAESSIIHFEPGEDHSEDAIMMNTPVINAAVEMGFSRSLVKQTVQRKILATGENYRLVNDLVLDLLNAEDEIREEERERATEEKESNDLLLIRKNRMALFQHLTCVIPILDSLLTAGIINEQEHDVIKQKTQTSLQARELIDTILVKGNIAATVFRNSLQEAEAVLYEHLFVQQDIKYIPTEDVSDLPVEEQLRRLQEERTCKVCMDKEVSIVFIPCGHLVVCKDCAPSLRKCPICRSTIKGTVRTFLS
RIPK1/FADD/caspase-8 complex, sequence (Q13546 whole entry, one chain of several): as the sequence (Q13546 whole entry) above

In the case of TNF-α, the “effect of exogenously added TNF-α on Smac mimetic plus z-VAD induced cell death” value in the experiment with HT-29 cells (HT-29 cells) is “augmented”.

`CN1C(=O)C(Cc2c[nH]c3ccccc23)NC1=S` (stereo not drawn) [Necrostatin-1]: the “effect on Smac mimetic plus z-VAD induced cell death” value in the experiment with HT-29 cells (HT-29 cells, agent added to culture) is “cell death was prevented”. In the experiment with T98G cells, the “effect on T98G cell death resulting from RIP3 expression” value is reported as “blocked”. Besides, at RIP3/RIPK1, the “RIP3 interaction with RIPK1” value was “completely prevented” and the RIP3 up-shift result is listed as “completely prevented”. In addition, in experiment [1], the “formation of RIPK1/FADD/caspase-8 (RIP3) complexes” value is given as “none of these complexes were able to form efficiently”.

Consider `CN[C@@H](C)C(=O)N[C@H](C(=O)N1CCC[C@H]1Cn1nnnc1Sc1ccccc1)C(C)OCC#CC#CCO[C@H](C)[C@H](NC(=O)[C@H](C)NC)C(=O)N1CCCC1Cn1nnnc1Sc1ccccc1` (stereo partly drawn) [Smac mimetic], for which, in the experiment on HT-29 cells, the “cell death of HT-29 cells” value is “exacerbated cell death”. For the same compound, the cIAP2 degradation result on cIAP2 is given as “accelerated degradation”. Besides, the “cell death in L929 cells” value in the experiment with L929 cells is “accelerated cell death”.

As to Q-VD-OPH, the “cell death of HT-29 cells” value with HT-29 cells is on record as “exacerbated cell death”.

For z-VAD, the “cell death of HT-29 cells” value in the experiment with HT-29 cells is reported as “exacerbated cell death”. In addition, the “effect on Smac mimetic induced apoptotic death” value with certain tumor cell lines is “completely blocked”.
